Activity calls are given as the source filed them.
Assays:
[1] = biological target: Intestinal-type alkaline phosphatase (Homo sapiens, UniProt P09923); assay: human intestinal alkaline phosphatase activators, dose response, biochemical, luminescence, uHTS hits (AID 463120); assay type: functional
[2] = biological target: T1, Corticotropin-releasing factor receptor 2/Corticotropin-releasing factor-binding protein (Homo sapiens, UniProt P24387+Q13324); assay: Dose Response confirmation of uHTS hits for small molecule antagonists of the CRF-binding protein and CRF-R2 receptor complex.; assay type: functional; conditions: read-out: IC50_Mean
T1 sequence (Q13324 whole entry): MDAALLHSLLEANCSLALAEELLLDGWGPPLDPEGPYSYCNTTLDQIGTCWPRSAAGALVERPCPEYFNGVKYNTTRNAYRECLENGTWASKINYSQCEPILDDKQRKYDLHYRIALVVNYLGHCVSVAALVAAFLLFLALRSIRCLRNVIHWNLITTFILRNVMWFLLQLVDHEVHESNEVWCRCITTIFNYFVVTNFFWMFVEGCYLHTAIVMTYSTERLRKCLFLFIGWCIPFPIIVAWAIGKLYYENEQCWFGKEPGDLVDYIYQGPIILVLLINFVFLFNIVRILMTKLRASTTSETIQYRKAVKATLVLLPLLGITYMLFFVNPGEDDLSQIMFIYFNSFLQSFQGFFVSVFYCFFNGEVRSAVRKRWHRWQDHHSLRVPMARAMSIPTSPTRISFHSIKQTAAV
T1 sequence (P24387 whole entry): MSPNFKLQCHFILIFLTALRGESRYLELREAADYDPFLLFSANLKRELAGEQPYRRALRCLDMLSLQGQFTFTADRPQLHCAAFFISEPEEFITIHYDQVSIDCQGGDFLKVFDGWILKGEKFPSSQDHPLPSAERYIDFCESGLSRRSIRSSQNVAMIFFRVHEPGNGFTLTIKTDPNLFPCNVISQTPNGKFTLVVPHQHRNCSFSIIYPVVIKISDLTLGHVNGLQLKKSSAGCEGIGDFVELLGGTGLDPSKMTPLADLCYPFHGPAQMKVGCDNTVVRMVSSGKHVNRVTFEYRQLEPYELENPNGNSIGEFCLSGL

[3] = CRF-BP/CRF-R2 complex antagonists, dose response, cell-based, uHTS hits, 384-well (AID 651639); assay type: functional, Homo sapiens; conditions: read-out: IC50_Mean
[4] = biological target: T1, Corticotropin-releasing factor receptor 2/Corticotropin-releasing factor-binding protein; assay: activators of CRF receptor 2 with binding protein – uHTS hits, confirmation (AID 602473); assay type: functional; conditions: read-out: EC50_Mean
[5] = biological target: T2, Coagulation factor XII (Homo sapiens, UniProt P00748); assay: FXIIa inhibitor potency, concentration-response, biochemical (AID 716); assay type: functional
T2 sequence (P00748 whole entry): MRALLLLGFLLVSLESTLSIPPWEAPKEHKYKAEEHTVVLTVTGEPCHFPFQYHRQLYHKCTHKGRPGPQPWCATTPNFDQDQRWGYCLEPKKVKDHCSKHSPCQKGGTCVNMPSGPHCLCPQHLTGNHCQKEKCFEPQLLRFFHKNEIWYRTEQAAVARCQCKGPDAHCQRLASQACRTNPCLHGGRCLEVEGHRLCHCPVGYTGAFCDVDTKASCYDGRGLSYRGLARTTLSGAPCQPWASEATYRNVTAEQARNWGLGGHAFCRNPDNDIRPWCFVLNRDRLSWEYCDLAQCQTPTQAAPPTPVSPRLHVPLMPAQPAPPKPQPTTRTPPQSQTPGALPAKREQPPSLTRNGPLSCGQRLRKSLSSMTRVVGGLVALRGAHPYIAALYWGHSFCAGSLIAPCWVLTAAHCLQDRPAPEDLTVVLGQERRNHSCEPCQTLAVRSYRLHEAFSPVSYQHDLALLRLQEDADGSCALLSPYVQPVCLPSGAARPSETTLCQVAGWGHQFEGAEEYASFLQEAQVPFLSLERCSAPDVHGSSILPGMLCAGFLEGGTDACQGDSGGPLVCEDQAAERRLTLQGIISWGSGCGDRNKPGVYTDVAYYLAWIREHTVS

[6] = biological target: Cytochrome P450 2C19 (Homo sapiens, UniProt P33261); assay: Cytochrome panel assay with activity outcomes. Panel member name: p450-cyp2c19 Compounds with AC50 equal or less than 10 uM are considered active; assay type: functional; conditions: read-out: AC50
Sequence of Cytochrome P450 2C19 (P33261 whole entry): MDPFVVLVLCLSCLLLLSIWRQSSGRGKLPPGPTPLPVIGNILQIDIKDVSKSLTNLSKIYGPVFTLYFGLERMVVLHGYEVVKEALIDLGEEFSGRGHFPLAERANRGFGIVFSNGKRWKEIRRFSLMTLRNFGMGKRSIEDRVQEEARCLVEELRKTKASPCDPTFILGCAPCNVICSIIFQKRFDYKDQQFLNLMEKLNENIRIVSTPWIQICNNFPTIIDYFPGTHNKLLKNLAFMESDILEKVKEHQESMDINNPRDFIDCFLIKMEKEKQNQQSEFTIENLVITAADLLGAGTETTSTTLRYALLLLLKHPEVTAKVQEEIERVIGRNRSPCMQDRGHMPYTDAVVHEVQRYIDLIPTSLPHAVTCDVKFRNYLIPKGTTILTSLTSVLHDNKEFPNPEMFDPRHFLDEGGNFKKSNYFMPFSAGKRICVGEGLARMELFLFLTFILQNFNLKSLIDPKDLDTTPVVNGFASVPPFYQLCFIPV

[7] = biological target: Cytochrome P450 2D6 (Homo sapiens, UniProt P10635)
[8] = biological target: T3, Orexin/Hypocretin receptor type 1 (Homo sapiens, UniProt O43613); assay: Homogeneous Time Resolved Fluorescence (HTRF)-based cell-based high throughput dose response assay for antagonists of the orexin 1 receptor (OX1R; HCRTR1). [Related pubchem assays (depositor defined):AID434989, AID435008, AID463079, AID485270, AID492963, AID492964, AID492965, AID493232, AID504717, AID504718]; assay type: functional
T3 sequence (O43613 whole entry): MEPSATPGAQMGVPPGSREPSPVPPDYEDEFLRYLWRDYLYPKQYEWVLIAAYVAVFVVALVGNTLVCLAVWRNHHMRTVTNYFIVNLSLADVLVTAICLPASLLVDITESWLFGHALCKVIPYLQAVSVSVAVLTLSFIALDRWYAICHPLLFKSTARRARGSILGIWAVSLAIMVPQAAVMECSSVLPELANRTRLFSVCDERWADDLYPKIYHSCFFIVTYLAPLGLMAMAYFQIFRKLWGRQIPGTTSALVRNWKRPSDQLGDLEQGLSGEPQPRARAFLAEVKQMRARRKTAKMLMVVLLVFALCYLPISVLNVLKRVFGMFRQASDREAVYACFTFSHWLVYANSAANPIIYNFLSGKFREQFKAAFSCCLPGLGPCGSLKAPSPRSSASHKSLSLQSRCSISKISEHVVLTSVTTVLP

[9] = (§1) Counterscreen for antagonists of the orexin 1 receptor (OX1R; HCRTR1): Fluorescence-based cell-based high throughput dose response assay to identify antagonists of the parental CHO cell line. [Related pubchem assays (depositor defined):AID434989, AID435008, AID463079, AID485270, AID492963, AID492964, AID492965, AID493232, AID504699, AID504701]; assay type: functional
[10] = test system: CHO-K1; assay: as §1, with “Homogeneous time resolved fluorescence (HTRF)-based” for “Fluorescence-based”, “cell-based” for “cell-based high throughput”, “CHO-K1” for “CHO”; assay type: functional; conditions: Cricetulus griseus;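 also: potency for inhibition of ATP-stimulated IP1 production as antagonists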
[11] = biological target: T3, Orexin/Hypocretin receptor type 1; assay: Fluorescence-based cell-based high throughput dose response assay for antagonists of the orexin 1 receptor (OX1R; HCRTR1). [Related pubchem assays (depositor defined):AID434989, AID435008, AID463079, AID485270, AID492963, AID492964, AID492965, AID493232, AID504717, AID504718]; assay type: functional
[12] = HEp-2 cell cytotoxicity, dose response, cytotoxicity control for RSV inhibitor project, HTS (AID 2410); assay type: functional; conditions: human respiratory syncytial virus
[13] = biological target: T4, E3 ubiquitin-protein ligase XIAP (Homo sapiens, UniProt P98170); assay: Counter Screen using XIAP-Bir3 for Chemical Antagonists of Bir1/2 domains of IAP-family anti-apoptotic proteins. [Related pubchem assays (depositor defined):AID1018, AID1449, AID1514, AID1638, AID1749, AID1750, AID488957, AID488963]
T4 sequence (P98170 whole entry): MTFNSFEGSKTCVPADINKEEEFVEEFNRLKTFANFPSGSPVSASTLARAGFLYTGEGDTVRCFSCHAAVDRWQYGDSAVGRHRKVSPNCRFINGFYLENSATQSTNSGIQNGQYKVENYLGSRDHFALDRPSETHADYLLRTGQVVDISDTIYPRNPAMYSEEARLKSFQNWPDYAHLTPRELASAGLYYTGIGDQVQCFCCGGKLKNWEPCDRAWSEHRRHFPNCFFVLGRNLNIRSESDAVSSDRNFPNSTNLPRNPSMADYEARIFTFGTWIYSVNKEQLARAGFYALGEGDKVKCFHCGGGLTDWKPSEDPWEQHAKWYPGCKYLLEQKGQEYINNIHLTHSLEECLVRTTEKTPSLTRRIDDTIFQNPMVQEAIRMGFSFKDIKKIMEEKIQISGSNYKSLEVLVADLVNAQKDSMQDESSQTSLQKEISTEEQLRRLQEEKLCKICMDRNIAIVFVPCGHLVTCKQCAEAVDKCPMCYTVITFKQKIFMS

[14] = biological target: T4, E3 ubiquitin-protein ligase XIAP; assay: XIAP antagonists, biochemical, IAP family, fluorescence polarization (AID 1018); assay type: functional
[15] = biological target: T5, Replicative DNA helicase DnaB (Mycobacterium tuberculosis, UniProt P9WMR3); assay: DnaB intein splicing inhibitors, dose response, biochemical, cell-free fluorescence (AID 449749); assay type: functional
T5 sequence (P9WMR3 whole entry): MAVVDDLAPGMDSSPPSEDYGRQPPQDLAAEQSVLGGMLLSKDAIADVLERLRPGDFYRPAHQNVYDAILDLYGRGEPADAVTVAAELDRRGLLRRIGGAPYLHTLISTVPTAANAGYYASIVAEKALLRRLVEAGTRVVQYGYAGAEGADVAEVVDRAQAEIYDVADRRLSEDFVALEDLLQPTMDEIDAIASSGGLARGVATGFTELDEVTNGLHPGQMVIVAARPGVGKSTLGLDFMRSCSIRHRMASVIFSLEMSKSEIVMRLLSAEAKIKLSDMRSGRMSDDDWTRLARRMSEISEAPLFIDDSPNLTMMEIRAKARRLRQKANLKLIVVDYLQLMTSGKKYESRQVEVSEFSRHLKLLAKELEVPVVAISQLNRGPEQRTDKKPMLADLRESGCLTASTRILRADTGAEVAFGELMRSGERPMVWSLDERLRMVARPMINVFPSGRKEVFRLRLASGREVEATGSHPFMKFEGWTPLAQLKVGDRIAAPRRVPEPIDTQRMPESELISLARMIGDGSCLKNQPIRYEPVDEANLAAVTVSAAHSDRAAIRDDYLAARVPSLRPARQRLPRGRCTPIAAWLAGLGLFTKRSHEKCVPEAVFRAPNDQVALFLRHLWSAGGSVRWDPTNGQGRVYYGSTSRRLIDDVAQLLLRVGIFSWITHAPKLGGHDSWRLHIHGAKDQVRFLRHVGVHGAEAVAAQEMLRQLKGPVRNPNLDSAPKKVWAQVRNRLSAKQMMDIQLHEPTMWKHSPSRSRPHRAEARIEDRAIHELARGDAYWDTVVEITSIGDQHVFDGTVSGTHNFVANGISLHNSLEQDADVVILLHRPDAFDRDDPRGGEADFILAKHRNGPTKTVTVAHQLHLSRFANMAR

[16] = Shn3 3'UTR reporter inhibitors, dose response, cell-based, Clone20 osteoblasts, firefly luciferase, cherry-picked (AID 624132); assay type: functional;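 also: firefly luciferase luminescence from reporter carrying the Shn3 3'UTR in osteoblasts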
[17] = biological target: T6, Protein RecA (Mycobacterium tuberculosis, UniProt P9WHJ3); assay: Fluorescence Cell-Free Homogeneous Dose Retest to Identify Inhibitors of RecA-Intein Splicing Activity. [Related pubchem assays (depositor defined):AID2097, AID2223, AID489010, AID492950]; assay type: functional
T6 sequence (P9WHJ3 whole entry): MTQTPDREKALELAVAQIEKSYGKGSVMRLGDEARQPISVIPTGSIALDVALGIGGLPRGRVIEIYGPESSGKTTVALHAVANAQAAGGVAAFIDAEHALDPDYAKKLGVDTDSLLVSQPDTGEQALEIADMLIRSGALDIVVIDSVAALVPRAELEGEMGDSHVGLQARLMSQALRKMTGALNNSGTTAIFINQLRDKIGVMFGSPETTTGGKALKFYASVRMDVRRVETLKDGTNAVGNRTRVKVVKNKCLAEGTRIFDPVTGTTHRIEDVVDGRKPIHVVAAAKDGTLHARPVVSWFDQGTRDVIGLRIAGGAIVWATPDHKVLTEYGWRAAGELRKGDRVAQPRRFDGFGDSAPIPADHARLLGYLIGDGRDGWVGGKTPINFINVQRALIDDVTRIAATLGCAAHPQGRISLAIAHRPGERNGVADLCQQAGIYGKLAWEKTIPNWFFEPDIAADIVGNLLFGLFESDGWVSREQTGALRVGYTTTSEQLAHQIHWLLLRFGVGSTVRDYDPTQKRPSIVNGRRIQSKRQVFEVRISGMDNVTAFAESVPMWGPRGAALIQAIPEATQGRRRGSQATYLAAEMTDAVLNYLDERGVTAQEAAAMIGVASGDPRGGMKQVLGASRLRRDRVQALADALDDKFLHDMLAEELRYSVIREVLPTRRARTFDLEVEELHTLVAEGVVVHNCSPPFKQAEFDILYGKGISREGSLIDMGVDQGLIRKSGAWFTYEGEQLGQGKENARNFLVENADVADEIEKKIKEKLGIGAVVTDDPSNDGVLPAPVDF

[18] = test system: Vero; assay: Vero cell cytotoxicity, cytotoxicity control for flavivirus capping enzyme inhibitors (AID 588742); assay type: functional; conditions: Chlorocebus sabaeus
[19] = biological target: Potassium voltage-gated channel subfamily KQT member 2 (Rattus norvegicus, UniProt O88943, W236L); assay: KCNQ2 channel potentiators, dose response, mechanism study for KCNQ2 potentiator project, cell-based, automated electrophysiology (AID 2603); assay type: functional
Sequence of Potassium voltage-gated channel subfamily KQT member 2 (O88943 whole entry W236L): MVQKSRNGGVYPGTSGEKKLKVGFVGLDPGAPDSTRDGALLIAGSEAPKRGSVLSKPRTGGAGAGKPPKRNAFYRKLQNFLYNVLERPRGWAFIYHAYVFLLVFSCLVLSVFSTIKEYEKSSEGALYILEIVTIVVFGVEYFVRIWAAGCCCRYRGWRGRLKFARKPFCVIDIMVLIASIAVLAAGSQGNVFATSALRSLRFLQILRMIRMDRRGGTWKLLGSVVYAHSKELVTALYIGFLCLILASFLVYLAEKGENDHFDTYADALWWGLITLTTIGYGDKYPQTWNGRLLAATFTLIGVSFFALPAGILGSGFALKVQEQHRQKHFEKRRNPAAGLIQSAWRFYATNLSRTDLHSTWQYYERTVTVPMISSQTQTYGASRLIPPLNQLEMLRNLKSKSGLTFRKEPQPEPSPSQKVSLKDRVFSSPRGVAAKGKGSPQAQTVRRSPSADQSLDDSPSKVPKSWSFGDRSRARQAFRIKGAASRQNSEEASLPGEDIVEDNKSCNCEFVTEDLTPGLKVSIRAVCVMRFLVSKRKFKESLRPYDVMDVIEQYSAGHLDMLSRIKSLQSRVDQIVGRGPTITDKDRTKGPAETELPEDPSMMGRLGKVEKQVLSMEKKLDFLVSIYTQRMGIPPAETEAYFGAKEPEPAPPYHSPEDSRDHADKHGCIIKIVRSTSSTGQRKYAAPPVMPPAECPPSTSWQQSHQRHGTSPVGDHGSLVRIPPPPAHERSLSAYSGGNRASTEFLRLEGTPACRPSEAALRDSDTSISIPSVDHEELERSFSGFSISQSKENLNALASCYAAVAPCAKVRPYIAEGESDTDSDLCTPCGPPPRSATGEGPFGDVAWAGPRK

[20] = control 3'UTR Renilla luciferase suppression, dose response, counter-screen for Shn3 inhibitor project, cell-based, Clone20-Shn3RL, cherry-picked (AID 624133); assay type: functional
[21] = biological target: Hepatocyte nuclear factor 4-alpha (Homo sapiens, UniProt P41235); assay type: functional, cell-based;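 also: biochemical luminescence-based dose-response counterscreen measuring inhibition of HNF4 dimerization, run alongside a screen for blockers of ABHD5–perilipin-5 interaction; split luciferase complementation of HNF4 fusion proteins in cell lysate measuring dimerization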
Sequence of Hepatocyte nuclear factor 4-alpha (P41235 whole entry, the tested form may be a part): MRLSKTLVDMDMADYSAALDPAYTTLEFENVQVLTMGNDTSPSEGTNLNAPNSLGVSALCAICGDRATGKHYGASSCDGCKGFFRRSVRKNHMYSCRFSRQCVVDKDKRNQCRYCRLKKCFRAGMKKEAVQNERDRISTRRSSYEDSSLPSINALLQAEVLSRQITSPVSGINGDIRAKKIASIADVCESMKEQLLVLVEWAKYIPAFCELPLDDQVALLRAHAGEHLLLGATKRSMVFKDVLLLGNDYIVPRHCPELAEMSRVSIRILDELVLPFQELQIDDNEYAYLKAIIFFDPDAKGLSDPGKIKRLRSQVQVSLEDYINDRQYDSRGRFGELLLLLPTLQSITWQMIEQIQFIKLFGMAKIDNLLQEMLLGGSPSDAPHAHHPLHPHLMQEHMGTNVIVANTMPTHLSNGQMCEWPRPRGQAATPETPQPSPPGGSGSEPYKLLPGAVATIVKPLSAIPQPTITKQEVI

[22] = biological target: Genome polyprotein (dengue virus type 2, UniProt P29990); assay: Dengue-2 NS5 methyltransferase inhibitors, primary screen, biochemical, confirmation dose response (AID 588689); assay type: functional
Sequence of Genome polyprotein (P29990 2492-3391 limits assumed): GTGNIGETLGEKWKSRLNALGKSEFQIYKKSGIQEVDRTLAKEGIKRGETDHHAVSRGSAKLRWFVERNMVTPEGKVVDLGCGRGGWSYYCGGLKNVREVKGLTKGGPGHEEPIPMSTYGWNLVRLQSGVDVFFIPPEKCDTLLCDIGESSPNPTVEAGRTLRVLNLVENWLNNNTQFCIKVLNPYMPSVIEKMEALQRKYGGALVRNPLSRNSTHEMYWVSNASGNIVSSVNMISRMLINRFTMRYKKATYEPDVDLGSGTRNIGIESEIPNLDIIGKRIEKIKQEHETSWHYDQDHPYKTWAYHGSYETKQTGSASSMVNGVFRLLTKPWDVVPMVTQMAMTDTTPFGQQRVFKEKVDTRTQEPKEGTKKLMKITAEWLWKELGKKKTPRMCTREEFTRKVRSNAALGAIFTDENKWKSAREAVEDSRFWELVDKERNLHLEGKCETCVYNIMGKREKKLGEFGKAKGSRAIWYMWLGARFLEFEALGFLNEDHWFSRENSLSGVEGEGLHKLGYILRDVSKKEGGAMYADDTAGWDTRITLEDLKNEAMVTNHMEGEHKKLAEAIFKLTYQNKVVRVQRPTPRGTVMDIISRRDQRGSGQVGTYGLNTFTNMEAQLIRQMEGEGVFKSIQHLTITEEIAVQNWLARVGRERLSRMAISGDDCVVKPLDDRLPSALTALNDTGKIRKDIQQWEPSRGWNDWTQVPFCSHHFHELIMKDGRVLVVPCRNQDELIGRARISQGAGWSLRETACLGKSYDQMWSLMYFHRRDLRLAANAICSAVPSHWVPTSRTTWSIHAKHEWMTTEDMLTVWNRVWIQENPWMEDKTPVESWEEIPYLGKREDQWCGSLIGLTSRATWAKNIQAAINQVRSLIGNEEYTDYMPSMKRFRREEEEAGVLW

[23] = Intein inhibitors as potential Tuberculosis drugs, a cytotoxicity screen. [Related pubchem assays (depositor defined):AID2221, AID2223, AID434968, AID435010, AID449749, AID449750, AID489010]; assay type: functional
[24] = biological target: T7, Runt-related transcription factor 1/Core-binding factor subunit beta (Homo sapiens, UniProt Q01196+Q13951); assay: inhibitors of RUNX1 Runt–CBFb-SMMHC binding, primary screen, biochemical, FRET, Cerulean-Runt, Venus-CBFb-SMMHC, uHTS (AID 1434); assay type: protein assay;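 also: partner is the CBFb-SMMHC leukemia fusion protein rather than wild-type CBFb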
T7 sequence (Q01196 whole entry, the tested form may be a part): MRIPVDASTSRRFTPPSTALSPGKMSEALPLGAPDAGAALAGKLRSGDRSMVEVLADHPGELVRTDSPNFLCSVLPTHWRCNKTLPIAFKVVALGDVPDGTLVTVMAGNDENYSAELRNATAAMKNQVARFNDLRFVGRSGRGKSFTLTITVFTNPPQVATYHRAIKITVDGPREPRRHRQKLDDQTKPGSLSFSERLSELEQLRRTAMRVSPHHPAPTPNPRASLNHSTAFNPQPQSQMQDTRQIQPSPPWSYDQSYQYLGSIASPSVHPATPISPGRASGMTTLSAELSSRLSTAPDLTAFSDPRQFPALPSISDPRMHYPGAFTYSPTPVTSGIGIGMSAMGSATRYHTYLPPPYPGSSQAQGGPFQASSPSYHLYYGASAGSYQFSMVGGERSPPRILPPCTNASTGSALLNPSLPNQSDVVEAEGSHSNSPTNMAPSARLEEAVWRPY
T7 sequence (Q13951 whole entry, the tested form may be a part): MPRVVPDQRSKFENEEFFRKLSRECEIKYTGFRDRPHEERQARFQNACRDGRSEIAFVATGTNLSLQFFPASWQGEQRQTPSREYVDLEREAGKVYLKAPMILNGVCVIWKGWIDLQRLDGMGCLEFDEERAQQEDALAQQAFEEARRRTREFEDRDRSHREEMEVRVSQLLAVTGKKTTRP

[25] = biological target: T7, Runt-related transcription factor 1/Core-binding factor subunit beta; assay: inhibitors of RUNX1 Runt–CBFb-SMMHC binding, biochemical, TR-FRET (AID 1438); assay type: protein assay

Sequence of Intestinal-type alkaline phosphatase (P09923 whole entry): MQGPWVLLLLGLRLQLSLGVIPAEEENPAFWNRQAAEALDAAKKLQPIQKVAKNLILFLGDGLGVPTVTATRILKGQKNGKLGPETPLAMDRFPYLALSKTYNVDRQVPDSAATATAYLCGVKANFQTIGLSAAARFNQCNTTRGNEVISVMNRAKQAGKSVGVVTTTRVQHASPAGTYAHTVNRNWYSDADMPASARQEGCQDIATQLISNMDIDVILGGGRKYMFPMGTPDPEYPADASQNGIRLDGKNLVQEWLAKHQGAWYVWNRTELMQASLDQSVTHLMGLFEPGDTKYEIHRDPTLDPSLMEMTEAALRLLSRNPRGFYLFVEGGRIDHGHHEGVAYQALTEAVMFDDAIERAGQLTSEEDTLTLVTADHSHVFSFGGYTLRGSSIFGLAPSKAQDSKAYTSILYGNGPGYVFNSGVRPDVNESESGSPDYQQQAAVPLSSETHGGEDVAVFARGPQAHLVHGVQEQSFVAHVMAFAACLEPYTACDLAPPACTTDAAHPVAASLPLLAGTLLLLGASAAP

For `O=C(NNc1ncnc2c1cnn2-c1ccc(F)cc1)c1ccco1`, the EC50 [1] was 7.17 µM (active), the IC50 [2] was < 0.368 µM (active) and the IC50 [3] was > 20 µM (inactive). The EC50 [4] was > 53 µM (inactive).
In the case of `CCS(=O)(=O)N1CCC(C(=O)NCc2ccc(F)cc2Cl)CC1`, the IC50 [5] is reported as > 50 µM (inactive), the AC50 [6] is reported as 39.8 µM (inconclusive) and the AC50 [7] is reported as 14.1 µM (inconclusive).
In the case of `Cc1cc(C)cc(NC(=O)C2CCCN2S(=O)(=O)c2cccc3cccnc23)c1` (stereo not given), the IC50 [8] is reported as 0.244 µM (active), the IC50 [9] is reported as > 49.7 µM (inactive) and the IC50 [10] is reported as > 66.2 µM (inactive). For the same molecule, the IC50 [11] was 3.03 µM (active) and the CC50 [12] was 32.9 µM (active).
In the case of `COc1ccc(NC(=O)N2CCC(c3nc(-c4cccs4)no3)CC2)cc1`, the IC50 [13] is reported as > 100 µM (inactive) and the IC50 [14] is reported as > 100 µM (not active).
With `CSc1nnc(NC(=O)c2nc(S(=O)(=O)Cc3cccc(C)c3)ncc2Cl)s1` the AC50 [15] was 3.49 µM (active), the AC50 [16] was 4.03 µM (active) and the EC50 [17] was 3.16 µM (active). The CC50 [18] was 24.9 µM (active), the EC50 [19] was 1.83 µM (active) and the AC50 [20] was 11.5 µM (active). The IC50 [21] was 4.45 µM (active), the IC50 [22] was 44.5 µM (active) and the CC50 [23] was 26.7 µM (active).
In the case of `CN1c2ccsc2C(O)=C(C(S)=Nc2ccc(F)c(Cl)c2)S1(=O)=O`, the IC50 [24] is reported as > 100 µM (inactive) and the IC50 [25] is reported as > 100 µM (inactive).

Reference: ChEMBL document CHEMBL1201862, “PubChem BioAssay data set” (2004)
